Blank lines part the entries; values can stand above or below the compound they belong to.
Tests used:
Type in all cases: binding
Vasa [1] = biological target: T1, Vasa (Bombyx mori, UniProt O01378); assay: NMR titration, 1H-13C methyl-HMQC, slow exchange
T1 construct: gene BmVLG
T1 sequence (O01378 135-564): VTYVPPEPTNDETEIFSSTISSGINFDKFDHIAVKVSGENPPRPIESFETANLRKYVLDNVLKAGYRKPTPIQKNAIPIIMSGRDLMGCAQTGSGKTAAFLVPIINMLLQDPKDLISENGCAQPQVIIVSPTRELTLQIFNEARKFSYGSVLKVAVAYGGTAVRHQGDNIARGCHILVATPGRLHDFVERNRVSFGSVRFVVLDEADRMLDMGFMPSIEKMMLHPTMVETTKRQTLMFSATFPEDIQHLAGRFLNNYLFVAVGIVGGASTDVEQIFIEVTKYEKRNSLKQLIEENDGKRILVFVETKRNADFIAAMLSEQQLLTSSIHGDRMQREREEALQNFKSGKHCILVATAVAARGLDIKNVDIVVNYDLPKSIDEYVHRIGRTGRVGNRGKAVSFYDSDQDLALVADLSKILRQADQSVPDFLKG

Vasa [2] = biological target: T2, Vasa (Bombyx mori, UniProt O01378); assay: NMR CSP titration, fast exchange
T2 construct: gene BmVLG
T2 sequence (O01378 135-400): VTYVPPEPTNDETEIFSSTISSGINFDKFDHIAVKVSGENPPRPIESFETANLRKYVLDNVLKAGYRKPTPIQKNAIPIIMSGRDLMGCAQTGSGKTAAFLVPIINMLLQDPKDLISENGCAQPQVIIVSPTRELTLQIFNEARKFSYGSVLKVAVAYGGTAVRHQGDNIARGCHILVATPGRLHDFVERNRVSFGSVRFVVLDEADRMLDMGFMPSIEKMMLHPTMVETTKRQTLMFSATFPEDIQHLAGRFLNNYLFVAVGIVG

Vasa [3] = biological target: T1, Vasa; assay: NMR methyl CSP titration, fast exchange (not saturated; KD inaccurate)

- Kd (Vasa [1]): 53 ± 15 µM
Structure (SMILES): Nc1ncnc2c1ncn2[C@@H]1O[C@H](COP(=O)(O)OP(=O)(O)O)[C@@H](O)[C@H]1O [ADP]

Structure (SMILES): Nc1ncnc2c1ncn2[C@@H]1O[C@H](COP(=O)(O)OP(=O)(O)OP(=O)(O)O)[C@@H](O)[C@H]1O [ATP]
- Kd (Vasa [2]): 1600 ± 600 µM

- Kd (Vasa [3]): ~18800 µM
Structure (SMILES): Nc1ncnc2c1ncn2[C@@H]1O[C@H](CO[P@](=O)(O)O[P@](=O)(O)O[P@@](=O)(O)S)[C@@H](O)[C@H]1O [ATPγS, adenosine 5′-γ-thiotriphosphate]

— paper PMC11617632, “Long-range conformational changes in the nucleotide-bound states of the DEAD-box helicase Vasa” (Biophysical Journal, 2024)
